Test results taken from publication PMC6852662 (Organic & biomolecular chemistry, 2019).

Target: T1, PmST1 (Pasteurella multocida, UniProt Q15KI8)
T1 sequence (Q15KI8 26-412): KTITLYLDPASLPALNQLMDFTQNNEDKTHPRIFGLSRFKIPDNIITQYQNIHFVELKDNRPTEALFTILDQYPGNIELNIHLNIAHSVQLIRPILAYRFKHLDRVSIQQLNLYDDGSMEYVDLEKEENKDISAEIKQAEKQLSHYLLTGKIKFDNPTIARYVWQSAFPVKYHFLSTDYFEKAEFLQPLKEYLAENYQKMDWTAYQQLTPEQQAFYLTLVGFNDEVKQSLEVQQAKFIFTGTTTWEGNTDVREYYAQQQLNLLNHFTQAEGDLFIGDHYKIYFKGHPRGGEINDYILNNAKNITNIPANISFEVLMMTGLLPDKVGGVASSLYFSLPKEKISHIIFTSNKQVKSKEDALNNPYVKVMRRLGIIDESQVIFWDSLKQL
Experiment: sialylation, conversion
Type: biochemical
Settings: poor substrate; prolonged incubation

Gb5 [4a]
conversion: ~ 30%
